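Interpolation was linear, between the two tested concentrations surrounding the appropriate level; five concentrations were tested over 48 hours in 96-well plates. Abbreviation: GI50, concentration required for 50% inhibition of growth.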 The source made the active and inactive calls. Rule as the data show it: active = GI50 up to about 1.1 µM and inactive = higher.
Columns and labels:
Test in all cases: NCI anticancer screen, dose series, 48 h
A498 = test system: A498
A549 = test system: A549
ACHN = test system: ACHN
CCRF-CEM = test system: CCRF-CEM
DMS-114 = test system: DMS-114
DMS-273 = test system: DMS-273
EKVX = test system: EKVX
HCT-116 = test system: HCT-116
HL-60 = test system: HL-60
HOP-62 = test system: HOP-62
HOP-92 = test system: HOP-92
HT-29 = test system: HT-29
IGROV-1 = test system: IGROV-1
KM-20L2 = test system: KM-20L2
KM12 = test system: KM12
M14 = test system: M14
M19-MEL = test system: M19-MEL
MOLT-4 = test system: MOLT-4
NCI-H23 = test system: NCI-H23
NCI-H460 = test system: NCI-H460
NCI-H522 = test system: NCI-H522
OVCAR-5 = test system: OVCAR-5
OVCAR-8 = test system: OVCAR-8
RXF 393 = test system: RXF 393
RXF 631 = test system: RXF 631
SF-295 = test system: SF-295
SK-MEL-28 = test system: SK-MEL-28
SK-OV-3 = test system: SK-OV-3
SNB-19 = test system: SNB-19
SNB-78 = test system: SNB-78
SR = test system: SR
TK-10 = test system: TK-10
U-251 = test system: U-251
UACC-257 = test system: UACC-257
UACC-62 = test system: UACC-62
UO-31 = test system: UO-31
786-0 = test system: 786-0
CAKI-1 = test system: CAKI-1
COLO 205 = test system: COLO 205
DLD-1 = test system: DLD-1
HCC 2998 = test system: HCC 2998
HCT-15 = test system: HCT-15
HOP-18 = test system: HOP-18
K562 = test system: K562
LOX IMVI = test system: LOX IMVI
LXFL 529 = test system: LXFL 529
Malme-3M = test system: Malme-3M
NCI-H226 = test system: NCI-H226
OVCAR-3 = test system: OVCAR-3
OVCAR-4 = test system: OVCAR-4
RPMI-8226 = test system: RPMI-8226
SF-268 = test system: SF-268
SF-539 = test system: SF-539
SK-MEL-5 = test system: SK-MEL-5
SN12C = test system: SN12C
SNB-75 = test system: SNB-75
SW-620 = test system: SW-620
Hs-578T = test system: Hs-578T
MDA-MB-231 = test system: MDA-MB-231
MDA-N = test system: MDA-N
XF498 = test system: XF498

## NC(CCc1nc(-c2cccc([N+](=O)[O-])c2)cs1)C(=O)O (stereo unspecified)
A498
  GI50: > 100 µM (inactive)
A549
  GI50: > 100 µM (inactive)
ACHN
  GI50: > 100 µM (inactive)
CCRF-CEM
  GI50: > 100 µM (inactive)
DMS-114
  GI50: > 100 µM (inactive)
DMS-273
  GI50: > 100 µM (inactive)
EKVX
  GI50: > 100 µM (inactive)
HCT-116
  GI50: > 100 µM (inactive)
HL-60
  GI50: > 100 µM (inactive)
HOP-62
  GI50: > 100 µM (inactive)
HOP-92
  GI50: > 100 µM (inactive)
HT-29
  GI50: > 100 µM (inactive)
IGROV-1
  GI50: > 100 µM (inactive)
KM-20L2
  GI50: > 100 µM (inactive)
KM12
  GI50: > 100 µM (inactive)
M14
  GI50: > 100 µM (inactive)
M19-MEL
  GI50: > 100 µM (inactive)
MOLT-4
  GI50: > 100 µM (inactive)
NCI-H23
  GI50: > 100 µM (inactive)
NCI-H460
  GI50: > 100 µM (inactive)
NCI-H522
  GI50: > 100 µM (inactive)
OVCAR-5
  GI50: > 100 µM (inactive)
OVCAR-8
  GI50: > 100 µM (inactive)
RXF 393
  GI50: > 100 µM (inactive)
RXF 631
  GI50: > 100 µM (inactive)
SF-295
  GI50: > 100 µM (inactive)
SK-MEL-28
  GI50: > 100 µM (inactive)
SK-OV-3
  GI50: > 100 µM (inactive)
SNB-19
  GI50: > 100 µM (inactive)
SNB-78
  GI50: > 100 µM (inactive)
SR
  GI50: > 100 µM (inactive)
TK-10
  GI50: > 100 µM (inactive)
U-251
  GI50: > 100 µM (inactive)
UACC-257
  GI50: > 100 µM (inactive)
UACC-62
  GI50: > 100 µM (inactive)
UO-31
  GI50: > 100 µM (inactive)

## COC(=O)c1c2c(c(-c3ccccc3)c3c1-c1nc(Cl)ccc1CC3)CCc1ccc(Cl)nc1-2
786-0
  GI50: > 100 µM (inactive)
A498
  GI50: > 100 µM (inactive)
A549
  GI50: > 100 µM (inactive)
ACHN
  GI50: > 100 µM (inactive)
CAKI-1
  GI50: > 100 µM (inactive)
CCRF-CEM
  GI50: > 100 µM (inactive)
COLO 205
  GI50: > 100 µM (inactive)
DLD-1
  GI50: > 100 µM (inactive)
EKVX
  GI50: 61.4 µM (inactive)
HCC 2998
  GI50: > 100 µM (inactive)
HCT-116
  GI50: 77.6 µM (inactive)
HCT-15
  GI50: > 100 µM
HL-60
  GI50: > 100 µM (inactive)
HOP-18
  GI50: > 100 µM (inactive)
HOP-62
  GI50: > 100 µM (inactive)
HOP-92
  GI50: 42.2 µM (inactive)
HT-29
  GI50: > 100 µM (inactive)
IGROV-1
  GI50: > 100 µM (inactive)
K562
  GI50: > 100 µM (inactive)
KM-20L2
  GI50: > 100 µM (inactive)
KM12
  GI50: > 100 µM (inactive)
LOX IMVI
  GI50: > 100 µM (inactive)
LXFL 529
  GI50: > 100 µM (inactive)
M14
  GI50: > 100 µM (inactive)
M19-MEL
  GI50: > 100 µM (inactive)
MOLT-4
  GI50: > 100 µM (inactive)
Malme-3M
  GI50: > 100 µM (inactive)
NCI-H226
  GI50: 52.6 µM (inactive)
NCI-H23
  GI50: > 100 µM (inactive)
NCI-H460
  GI50: 70.6 µM (inactive)
NCI-H522
  GI50: 77.1 µM (inactive)
OVCAR-3
  GI50: > 100 µM (inactive)
OVCAR-4
  GI50: > 100 µM (inactive)
OVCAR-5
  GI50: > 100 µM (inactive)
OVCAR-8
  GI50: 65.2 µM (inactive)
RPMI-8226
  GI50: > 100 µM (inactive)
RXF 393
  GI50: 47.5 µM (inactive)
RXF 631
  GI50: > 100 µM (inactive)
SF-268
  GI50: 78.5 µM (inactive)
SF-295
  GI50: 44.6 µM (inactive)
SF-539
  GI50: 45.5 µM (inactive)
SK-MEL-28
  GI50: > 100 µM (inactive)
SK-MEL-5
  GI50: > 100 µM (inactive)
SK-OV-3
  GI50: > 100 µM (inactive)
SN12C
  GI50: > 100 µM (inactive)
SNB-19
  GI50: 64 µM (inactive)
SNB-75
  GI50: 32.3 µM (inactive)
SNB-78
  GI50: 37.9 µM (inactive)
SR
  GI50: > 100 µM (inactive)
SW-620
  GI50: > 100 µM (inactive)
TK-10
  GI50: > 100 µM (inactive)
U-251
  GI50: 59.6 µM (inactive)
UACC-257
  GI50: > 100 µM (inactive)
UACC-62
  GI50: 71.6 µM (inactive)
UO-31
  GI50: > 100 µM (inactive)

## COc1ccc2c(c1)c[n+](C)c1c3cc(OC)c(OC)cc3ccc21
A549
  GI50: 2.74 µM (inactive)
CAKI-1
  GI50: 17.6 µM (inactive)
COLO 205
  GI50: 1.41 µM (inactive)
DLD-1
  GI50: 4.86 µM (inactive)
DMS-114
  GI50: 1.98 µM (inactive)
DMS-273
  GI50: 1.57 µM (inactive)
HCT-15
  GI50: 24.9 µM
HOP-18
  GI50: 12.4 µM (inactive)
Hs-578T
  GI50: 2.23 µM (inactive)
K562
  GI50: 2.04 µM (inactive)
KM-20L2
  GI50: 4.84 µM (inactive)
LOX IMVI
  GI50: 1.95 µM (inactive)
LXFL 529
  GI50: 1.96 µM (inactive)
M19-MEL
  GI50: 6.44 µM (inactive)
MDA-MB-231
  GI50: 1.59 µM (inactive)
MDA-N
  GI50: 2.5 µM (inactive)
NCI-H522
  GI50: 1.67 µM (inactive)
OVCAR-3
  GI50: 4.16 µM (inactive)
OVCAR-8
  GI50: 1.73 µM (inactive)
RPMI-8226
  GI50: 1.75 µM (inactive)
SF-268
  GI50: 2.75 µM (inactive)
SK-OV-3
  GI50: 9.4 µM (inactive)
SN12C
  GI50: 2.91 µM (inactive)
SNB-19
  GI50: 4.78 µM (inactive)
SNB-78
  GI50: 6.95 µM (inactive)
SR
  GI50: 1.38 µM (inactive)
SW-620
  GI50: 1.55 µM (inactive)
U-251
  GI50: 1.94 µM (inactive)
UACC-62
  GI50: 11.3 µM (inactive)
XF498
  GI50: 4.23 µM (inactive)

Reference: ChEMBL document CHEMBL1201862, “PubChem BioAssay data set” (2004)
